From PMC11721041 (Molecules, 2024)
Values joined by “and” are separate entries in the source; they are usually repeats but may differ in a detail not shown here. Equal values may be shown once. Read-outs that look alike come from different tables or passages of the source.

Columns and labels:
AChE = settings: cited from earlier work; for type of inhibition of AChE: native triterpenic acids
[1] = molecular target: butyrylcholinesterase (BChE); settings: cited from earlier work; for BChE activity (in words): native triterpenic acids
[2] = molecular target: T1, Acetylcholinesterase from Electrophorus electricus (electric eel) (Electrophorus electricus, UniProt O42275); assay: In vitro AChE inhibition assay (modified Ellman's method); assay type: biochemical; settings: for IC50: IC50 against AChE enzyme, triplicate; for IC50 / AChE inhibitory activity (in words): electric eel AChE, Ellman's assay; for times more active than 3-oxo-analog: indole derivative vs its 3-oxo amide
T1 construct: purchased Sigma-Aldrich C2888
Experimental: Acetylcholinesterase from Electrophorus electricus (electric eel) (AChE, Sigma C2888), sodium phosphate buffer (PBS) 0.1 M pH 7.4, acetylthiocholine iodide (ACT, Sigma A5751), and 5,5′-dithiobis-(2-nitrobenzoic acid) (DTNB, Sigma D8130) were purchased from Sigma-Aldrich (St. Louis, MO, USA). In vitro anti-AChE activity was performed based on the modified Ellman’s method. […] The IC50 values were determined graphically from inhibition curves (log inhibitor concentration vs. percent of inhibition). All experiments were performed in triplicate. Donepezil was used as a positive control

[3] = molecular target: T2, recombinant human acetylcholinesterase (hAChE) (Homo sapiens, UniProt P22303); assay: In vitro inhibition of recombinant human AChE (Ellman's method), IC50; assay type: biochemical; settings: 1 mM ATC, pH 8.0, 25 °C, read-out: IC50 against hAChE enzyme
T2 construct: purchased Sigma-Aldrich
Experimental: Acetylthiocholine iodide (ATC), recombinant human acetylcholinesterase (hAChE), and 5,5′-dithio-bis-(2-nitrobenzoic) acid (DTNB) were purchased from Sigma-Aldrich (Sigma-Aldrich). Dimethyl sulfoxide (DMSO) was purchased from PanReac AppliChem GmbH (Darmstadt, Germany). All other chemicals were of biochemical grade. All assays were performed at 25 °C using a UV-1800 Shimadzu (Kyoto, Japan) spectrophotometer at 412 nm. The inhibitory potency of compounds against hAChE was studied using Ellman’s method. Stock solutions of compounds (0.01 M) were prepared using DMSO. The final concentration of DMSO in the cuvette was less than 0.05% vol. The inhibitory effect against AChE of 0.05% DMSO was considered weak. To determine the IC50 (the concentration of the compound producing 50% enzyme activity inhibition), enzyme-catalyzed hydrolysis was carried out in 0.1 M phosphate buffer (pH 8.0) containing hAChE in the picomolar range, DTNB (0.1 mM final concentration), and 1 mM ATC as substrate. […] Then, absorbance change was recorded for 2 min. […] The percentage of hAChE inhibition was determined by comparison of rates of reaction of test samples relative to the control sample. […] IC50 was calculated using the Hill Equation: E/Emax=I^n/IC50n+I^n where E is the enzyme activity and [I] is the compound concentration.

[4] = molecular target: T2, recombinant human acetylcholinesterase (hAChE); assay: hAChE inhibition constants and inhibition type (Dixon and Cornish-Bowden plots); assay type: biochemical; settings: for type of AChE inhibition: Dixon and Cornish-Bowden plots
Experimental: The inhibition constants for hAChE were determined in 0.1M sodium phosphate buffer (pH 8.0) with various ATC concentrations in the range 0.1–1 mM. The rate of hydrolysis of ATC was measured after the addition of DTNB (0.1 mM final concentration) and enzyme. The final enzyme concentration in the assays was in the picomolar range. Controls of the active enzyme with 0.05% DMSO and ATC spontaneous hydrolysis in the absence of an inhibitor were performed for each substrate concentration. The rate of substrate hydrolysis was recorded by monitoring the linear optical density change at 412 nm for 5 min. Experiments were performed in triplicate. Inhibition constants were determined from the Dixon plot and Cornish-Bowden transformation using OriginPro 8.5 software (OriginLab Corporation, Northampton, MA, USA).

[5] = test system: human T-lymphoblastic leukemia cancer cells; settings: cited from earlier work
[6] = set-up: method as in PMID 32090748; settings: combination with SSRIs, patients with MDD; cited from earlier work

T2 sequence (P22303 32-614): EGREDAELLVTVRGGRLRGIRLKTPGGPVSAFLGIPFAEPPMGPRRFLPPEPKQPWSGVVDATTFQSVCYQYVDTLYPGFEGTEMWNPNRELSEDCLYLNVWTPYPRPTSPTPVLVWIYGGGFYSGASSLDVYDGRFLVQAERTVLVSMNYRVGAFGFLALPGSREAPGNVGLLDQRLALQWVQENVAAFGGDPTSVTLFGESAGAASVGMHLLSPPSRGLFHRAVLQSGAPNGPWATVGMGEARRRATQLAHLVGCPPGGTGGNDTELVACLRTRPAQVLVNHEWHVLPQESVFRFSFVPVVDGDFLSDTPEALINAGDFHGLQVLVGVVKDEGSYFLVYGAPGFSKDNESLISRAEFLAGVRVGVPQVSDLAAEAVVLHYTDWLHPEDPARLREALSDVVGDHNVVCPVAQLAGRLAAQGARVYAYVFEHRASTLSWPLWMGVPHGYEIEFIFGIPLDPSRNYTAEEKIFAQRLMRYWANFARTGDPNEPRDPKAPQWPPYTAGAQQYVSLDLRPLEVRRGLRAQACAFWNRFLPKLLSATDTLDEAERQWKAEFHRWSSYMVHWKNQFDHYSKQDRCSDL
T1 sequence (O42275 24-633): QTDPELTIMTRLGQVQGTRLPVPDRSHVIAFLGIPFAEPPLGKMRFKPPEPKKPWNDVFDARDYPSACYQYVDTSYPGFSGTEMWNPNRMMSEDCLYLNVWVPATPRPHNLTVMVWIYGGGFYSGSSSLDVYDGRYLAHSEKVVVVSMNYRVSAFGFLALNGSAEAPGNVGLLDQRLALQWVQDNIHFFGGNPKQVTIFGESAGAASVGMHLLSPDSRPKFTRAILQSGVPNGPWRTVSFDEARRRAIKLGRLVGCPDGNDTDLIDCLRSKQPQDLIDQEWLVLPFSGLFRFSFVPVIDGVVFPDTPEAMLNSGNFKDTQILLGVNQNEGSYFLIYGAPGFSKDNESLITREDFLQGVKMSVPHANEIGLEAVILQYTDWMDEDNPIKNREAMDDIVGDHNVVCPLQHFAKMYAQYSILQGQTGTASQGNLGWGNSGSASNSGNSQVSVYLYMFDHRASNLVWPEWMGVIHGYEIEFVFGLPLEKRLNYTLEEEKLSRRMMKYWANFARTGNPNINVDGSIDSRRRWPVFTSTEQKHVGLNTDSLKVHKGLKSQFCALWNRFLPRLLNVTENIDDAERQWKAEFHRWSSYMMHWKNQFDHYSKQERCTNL

Question: With `C=C(C)[C@@H]1CC[C@]2(C(=O)NCCN3CCCCC3)CC[C@]3(C)C(CCC4[C@@]5(C)CC[C@H](O)C(C)(C)C5CC[C@]43C)C12` (stereo partly drawn) as the compound, how does the Ki (AChE; selective inhibition of AChE) read?
Answer: 1 µM

Question: With `CC(=O)O[C@H]1CC[C@@]2(C)C(CC[C@]3(C)C2CCC2C4[C@H](C(C)=O)CC[C@]4(C(=O)NCCN4CCCC4)CC[C@]23C)C1(C)C` (stereo partly drawn) as the compound, how does the Ki ([1]; read-out: Ki against BChE) read?
Answer: 0.07 µM

Question: Which results are given for `C=C(C)[C@@H]1CC[C@]2(C(=O)NC3CN4CCC3CC4)CC[C@]3(C)C(CCC4[C@@]5(C)CCC(=O)C(C)(C)C5CC[C@]43C)C12` (mixture of isomers) [Compound 6, 3-oxo-lup-20-en-28-((±)-3-aminoquinuclidine) amide]?
Answer: IC50 [2]: 17 ± 1.04 µM; AChE inhibitory activity (in words) [2]: weak activity

Question: For `CC1(C)CC[C@]2(C(=O)NC3CN4CCC3CC4)CC[C@]3(C)C(=CCC4[C@@]5(C)CCC(=O)C(C)(C)C5CC[C@]43C)C2C1` (mixture of isomers) [Compound 7, 3-oxo-olean-12-en-28-((±)-3-aminoquinuclidine) amide], which IC50 [2] is on record?
Answer: 1.67 ± 0.05 µM

Question: Which IC50 [3] does the source give for `C[C@@H]1CC[C@]2(C(=O)NC3CN4CCC3CC4)CC[C@]3(C)C(=CCC4[C@@]5(C)CCC(=O)C(C)(C)C5CC[C@]43C)C2[C@H]1C` (mixture of isomers) [Compound 8, 3-oxo-urs-12-en-28-((±)-3-aminoquinuclidine) amide] here?
Answer: 5.33 ± 1.6 µM

Question: What about the IC50 [2] of the same compound?
Answer: 0.43 ± 0.02 µM

Question: And the “times less active than donepezil” value ([2]; ratio of AChE IC50 values)?
Answer: 14.8 times

Question: What about the “type of AChE inhibition” value [4] of the same compound?
Answer: mixed-type inhibitor

Question: What about the “Kui (uncompetitive inhibition constant)” value ([4]; hAChE, ATC 0.1–1 mM, pH 8.0) of the same compound?
Answer: 22.8 ± 1.5 µM

Question: What about the Ki ([4]; hAChE, ATC 0.1–1 mM, pH 8.0, read-out: Kci (competitive inhibition constant)) of the same compound?
Answer: 6.8 ± 0.4 µM

Question: With `CC1(C)C(=O)CC[C@@]2(C)C1CC[C@]1(C)C2CC=C2C3C[C@@](C)(C(=O)NC4CN5CCC4CC5)CC[C@]3(C)CC[C@]21C` (mixture of isomers) [Compound 9, 3-oxo-11-dezoxo-olean-12-en-30-((±)-3-aminoquinuclidine) amide] as the compound, how does the IC50 [2] read?
Answer: 29 µM and 28.9 µM

Question: And the “AChE inhibitory activity (in words)” value [2]?
Answer: weak activity

Question: With `C=C(C)[C@@H]1CC[C@]2(C(=O)NC3CN4CCC3CC4)CC[C@]3(C)C(CCC4[C@@]5(C)Cc6c([nH]c7ccccc67)C(C)(C)C5CC[C@]43C)C12` (mixture of isomers) [Compound 10, [3,2b]Indolo-lup-20-en-28-((±)-3-aminoquinuclidine) amide] as the compound, how does the IC50 [2] read?
Answer: 4.77 ± 0.21 µM

Question: What about the “times more active than 3-oxo-analog” value ([2]; ratio of AChE IC50 values) of the same compound?
Answer: 3.5 times

Question: For `CC1(C)CC[C@]2(C(=O)NC3CN4CCC3CC4)CC[C@]3(C)C(=CCC4[C@@]5(C)Cc6c([nH]c7ccccc67)C(C)(C)C5CC[C@]43C)C2C1` (mixture of isomers) [Compound 11, [3,2b]Indolo-olean-12-en-28-((±)-3-aminoquinuclidine) amide], which IC50 [3] is on record?
Answer: 8.89 ± 0.4 µM

Question: What about the IC50 [2] of the same compound?
Answer: 0.47 ± 0.03 µM

Question: And the “AChE inhibitory activity (in words)” value [2]?
Answer: weak activity

Question: And the “times more active than 3-oxo-analog” value ([2]; ratio of AChE IC50 values)?
Answer: 3.5 times

Question: And the “type of AChE inhibition” value [4]?
Answer: uncompetitive type of inhibition

Question: And the “type of AChE inhibition” value ([4]; listed as 2,3-indolo-oleanolic acid amide)?
Answer: uncompetitive-type inhibitor

Question: What about the “Kui (uncompetitive inhibition constant)” value ([4]; hAChE, ATC 0.1–1 mM, pH 8.0) of the same compound?
Answer: 19.1 ± 5.1 µM

Question: With `C[C@@H]1CC[C@]2(C(=O)NC3CN4CCC3CC4)CC[C@]3(C)C(=CCC4[C@@]5(C)Cc6c([nH]c7ccccc67)C(C)(C)C5CC[C@]43C)C2[C@H]1C` (mixture of isomers) [Compound 12, [3,2b]Indolo-urs-12-en-28-((±)-3-aminoquinuclidine) amide] as the compound, how does the IC50 [2] read?
Answer: 18 ± 1.39 µM

Question: What about the “AChE inhibitory activity (in words)” value [2] of the same compound?
Answer: weak activity

Question: Which IC50 [2] does the source give for `CC1(C)c2[nH]c3ccccc3c2C[C@@]2(C)C1CC[C@]1(C)C2CC=C2C3C[C@@](C)(C(=O)NC4CN5CCC4CC5)CC[C@]3(C)CC[C@]21C` (mixture of isomers) [Compound 13, [3,2b]Indolo-11-dezoxo-olean-12-en-30-((±)-3-aminoquinuclidine) amide] here?
Answer: > 128 µM

Question: What about the “AChE inhibitory activity (in words)” value [2] of the same compound?
Answer: weak activity

Question: With `CC1(C)CC[C@]2(C(=O)O)CC[C@]3(C)C(=CC[C@@H]4[C@@]5(C)CC[C@H](O)C(C)(C)[C@@H]5CC[C@]43C)[C@@H]2C1` [OA, oleanolic acid] as the compound, how does the “BChE activity (in words)” value [1] read?
Answer: inactivity

Question: What about the “type of inhibition of AChE” value (AChE) of the same compound?
Answer: competitive

Question: With `C[C@H]1[C@H](C)CC[C@]2(C(=O)O)CC[C@]3(C)C(=CC[C@@H]4[C@@]5(C)CC[C@H](O)C(C)(C)[C@@H]5CC[C@]43C)[C@H]12` [UA, ursolic acid] as the compound, how does the “BChE activity (in words)” value [1] read?
Answer: inactivity

Question: And the “type of inhibition of AChE” value (AChE)?
Answer: mixed

Question: For `C[C@@H]1CC[C@@]2(OC1)O[C@H]1C[C@H]3[C@@H]4CC=C5C[C@@H](O)CC[C@]5(C)[C@H]4CC[C@]3(C)[C@H]1[C@@H]2C` [diosgenin], which “cytotoxicity (in words)” value [5] is on record?
Answer: does not exhibit cytotoxicity

Question: Which “clinical effect of adjunctive therapy (in words)” value [6] does the source give for `CC1(C)[C@@H](O[C@H]2O[C@H](C(=O)O)[C@@H](O)[C@H](O)[C@H]2O[C@@H]2O[C@H](C(=O)O)[C@@H](O)[C@H](O)[C@H]2O)CC[C@]2(C)[C@H]3C(=O)C=C4[C@@H]5C[C@@](C)(C(=O)O)CC[C@]5(C)CC[C@@]4(C)[C@]3(C)CC[C@@H]12` [glycyrrhizic acid, Glycyrrhizic acid] here?
Answer: impressively greater symptomatic improvement, better treatment response, and a faster onset of clinical effects

Question: With N-benzyl-3-benzamidoquinuclidine as the compound, how does the Ki ([1]; read-out: Ki, butyrylcholinesterase inhibitory activity) read?
Answer: 3.7 µM
